Data: PMC10634366 (Microbiology, 2023)

What was measured:
[1] = target: T1, Asuc_0142 (DcuAAs) (Actinobacillus succinogenes, UniProt A6VKM5); test: inhibition of […] min […]fumarate uptake, E. coli IMW529 cells; format: cell-based; conditions: 100 µM [14C]fumarate; anaerobic, pH 7, 37 °C
T1 construct: full-length gene from 130Z genomic DNA in pBAD30-derived pMB61 (pMB147), expressed in E. coli IMW529 lacking DcuA, DcuB, DcuC, TtdT and CitT

[2] = target: T1, Asuc_0142 (DcuAAs); test: as above; format: cell-based; conditions: read-out: % inhibition at 1 mM

inhibition at 1000 µM [2]	SMILES	% inhibition at 1 mM [1]
–	O=C(O)CCC(=O)O [succinate]	the inhibition by succinate and L-malate was only moderate
82%	O=C(O)/C=C/C(=O)O [fumarate]	–
95%	N[C@@H](CC(=O)O)C(=O)O [L-aspartate]	–
–	O=C(O)C[C@H](O)C(=O)O [L-malate]	the inhibition by succinate and L-malate was only moderate
